The results in this text go back to ChEMBL document CHEMBL4765279, “Discovery of a novel series of imidazo[1',2':1,6]pyrido[2,3-d]pyrimidin derivatives as potent cyclin-dependent kinase 4/6 inhibitors” (Eur J Med Chem, 2020).

The target in one series is CYP2C19 (Homo sapiens, UniProt P33261). Nature of the series: Inhibition of CYP2C19 in human liver microsomes at 10 uM measured after 20 mins in presence of NADPH by LC-MS/MS analysis relative to control. The format is ADME.
Series [1] has as its system COLO 205. Briefly: Antiproliferative activity against human COLO 205 cells assessed as cell growth inhibition measured after 4 to 6 days by celltiter-glo luminescent cell viability assay. The format is functional, cell-based.
A further series addresses CDK9/cyclin T1 (Homo sapiens, UniProt P50750).
A further series has as its target T1, Cytochrome P450 1A2 (Homo sapiens, UniProt P05177).
T1 sequence (P05177 whole entry): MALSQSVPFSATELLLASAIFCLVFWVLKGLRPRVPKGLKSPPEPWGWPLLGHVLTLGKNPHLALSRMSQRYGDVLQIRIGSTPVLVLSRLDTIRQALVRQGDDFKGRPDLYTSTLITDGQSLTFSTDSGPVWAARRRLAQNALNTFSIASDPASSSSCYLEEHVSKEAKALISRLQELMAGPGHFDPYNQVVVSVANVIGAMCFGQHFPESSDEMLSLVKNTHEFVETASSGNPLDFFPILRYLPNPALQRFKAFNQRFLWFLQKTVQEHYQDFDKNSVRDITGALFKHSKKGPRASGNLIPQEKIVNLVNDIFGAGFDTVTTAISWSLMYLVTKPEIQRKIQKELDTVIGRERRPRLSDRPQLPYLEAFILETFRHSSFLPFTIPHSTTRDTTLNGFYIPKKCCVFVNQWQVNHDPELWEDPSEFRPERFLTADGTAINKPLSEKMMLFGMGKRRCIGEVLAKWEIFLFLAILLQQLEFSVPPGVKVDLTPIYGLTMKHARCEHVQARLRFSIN
Briefly: Time-dependent inhibition of CYP1A2 in human liver microsomes at 10 uM in presence of NADPH by LC-MS/MS analysis. The format is ADME.

For a further series, the target named is T2, CYP1A2 (Homo sapiens, UniProt P05177).
T2 sequence (P05177 whole entry): T1 sequence (P05177 whole entry)
Nature of the series: Inhibition of CYP1A2 in human liver microsomes at 10 uM measured after 20 mins in presence of NADPH by LC-MS/MS analysis relative to control. The format is ADME.

For a further series, the target named is Cytochrome P450 2C9 (Homo sapiens, UniProt P11712). Nature of the series: Time-dependent inhibition of CYP2C9 in human liver microsomes at 10 uM in presence of NADPH by LC-MS/MS analysis. The format is ADME.
Series [2] is described as follows: Toxicity in human U-87 MG cells xenografted BALB/c mouse assessed as body weight loss at 10 mg/kg, po qd for 16 days relative to control. The format is organism-based. The conditions noted are these: in vivo, 384 h, time 16 day.
In series [3] the target is Cyclin-dependent kinase 1/cyclin B1 (Homo sapiens, UniProt P06493).
Description: Inhibition of CDK1/cyclin B (unknown origin)
Series [4] is described as follows: AUC (0 to t) in BALB/c mouse at 3 mg/kg, iv by LC-MS/MS analysis. The format is ADME, organism-based. On the set-up: dose 3 mg/kg. The settings on record: in vivo.
Series [5] deals with COLO 205. Nature of the series: Antitumor activity against human COLO 205 cells xenografted in BALB/c mouse assessed as tumor growth at 3 mg/kg, po qd for 11 days measured post last dose relative to control. The format is functional. The settings on record: time 11 day.
The nature of series [6]: Intrinsic clearance in rat liver microsomes at 1 uM preincubated for 10 mins followed by NADPH addition and measured after 1 hr by LC-MS/MS analysis. The format is ADME, Microsome. The settings on record: time 70 min, read-out: CLH.
Series [7] concerns COLO 205. Nature of the series: Antitumor activity against human COLO 205 cells xenografted in BALB/c mouse assessed as tumor growth inhibition at 30 mg/kg, po q3d for 11 days relative to control. The format is functional. The conditions noted are these: COLO 205, po, time 11 day, read-out: TGI.

Cyclin-dependent kinase 1/cyclin B1, sequence (P06493 whole entry): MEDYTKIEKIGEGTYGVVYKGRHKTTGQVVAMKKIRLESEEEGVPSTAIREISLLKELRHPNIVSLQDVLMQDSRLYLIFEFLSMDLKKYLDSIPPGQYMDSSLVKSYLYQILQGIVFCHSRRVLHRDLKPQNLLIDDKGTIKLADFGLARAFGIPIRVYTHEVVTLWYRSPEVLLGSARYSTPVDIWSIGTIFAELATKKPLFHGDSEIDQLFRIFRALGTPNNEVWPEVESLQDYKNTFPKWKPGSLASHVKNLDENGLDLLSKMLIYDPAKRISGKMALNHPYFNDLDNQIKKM
Cyclin-dependent kinase 1/cyclin B1, sequence (P14635 whole entry, further chain): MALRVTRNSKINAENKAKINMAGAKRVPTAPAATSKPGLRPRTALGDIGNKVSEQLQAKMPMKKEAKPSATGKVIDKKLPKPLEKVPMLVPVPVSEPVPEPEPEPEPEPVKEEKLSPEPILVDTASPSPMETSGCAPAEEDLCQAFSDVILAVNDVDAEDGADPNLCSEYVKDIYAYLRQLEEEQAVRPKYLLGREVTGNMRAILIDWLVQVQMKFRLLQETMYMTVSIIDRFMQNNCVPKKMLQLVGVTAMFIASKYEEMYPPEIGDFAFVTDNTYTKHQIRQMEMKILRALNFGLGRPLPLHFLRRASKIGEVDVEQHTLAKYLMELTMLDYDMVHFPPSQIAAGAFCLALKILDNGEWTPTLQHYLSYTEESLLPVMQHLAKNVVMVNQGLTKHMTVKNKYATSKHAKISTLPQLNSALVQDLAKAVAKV
CYP2C19, sequence (P33261 whole entry): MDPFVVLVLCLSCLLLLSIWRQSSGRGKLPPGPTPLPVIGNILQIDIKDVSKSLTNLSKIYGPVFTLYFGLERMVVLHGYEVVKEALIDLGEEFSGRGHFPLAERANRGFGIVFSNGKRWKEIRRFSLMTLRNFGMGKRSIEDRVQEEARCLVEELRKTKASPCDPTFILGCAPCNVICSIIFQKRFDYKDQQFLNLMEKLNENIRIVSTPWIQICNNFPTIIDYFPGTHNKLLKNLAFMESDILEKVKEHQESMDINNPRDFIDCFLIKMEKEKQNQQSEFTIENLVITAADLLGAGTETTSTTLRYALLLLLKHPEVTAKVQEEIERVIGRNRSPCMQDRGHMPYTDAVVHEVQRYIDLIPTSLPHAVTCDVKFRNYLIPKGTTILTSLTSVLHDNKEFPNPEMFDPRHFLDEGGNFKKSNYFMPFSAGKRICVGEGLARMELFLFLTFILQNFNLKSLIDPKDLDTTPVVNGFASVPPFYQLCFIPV
CDK9/cyclin T1, sequence (O60563 whole entry): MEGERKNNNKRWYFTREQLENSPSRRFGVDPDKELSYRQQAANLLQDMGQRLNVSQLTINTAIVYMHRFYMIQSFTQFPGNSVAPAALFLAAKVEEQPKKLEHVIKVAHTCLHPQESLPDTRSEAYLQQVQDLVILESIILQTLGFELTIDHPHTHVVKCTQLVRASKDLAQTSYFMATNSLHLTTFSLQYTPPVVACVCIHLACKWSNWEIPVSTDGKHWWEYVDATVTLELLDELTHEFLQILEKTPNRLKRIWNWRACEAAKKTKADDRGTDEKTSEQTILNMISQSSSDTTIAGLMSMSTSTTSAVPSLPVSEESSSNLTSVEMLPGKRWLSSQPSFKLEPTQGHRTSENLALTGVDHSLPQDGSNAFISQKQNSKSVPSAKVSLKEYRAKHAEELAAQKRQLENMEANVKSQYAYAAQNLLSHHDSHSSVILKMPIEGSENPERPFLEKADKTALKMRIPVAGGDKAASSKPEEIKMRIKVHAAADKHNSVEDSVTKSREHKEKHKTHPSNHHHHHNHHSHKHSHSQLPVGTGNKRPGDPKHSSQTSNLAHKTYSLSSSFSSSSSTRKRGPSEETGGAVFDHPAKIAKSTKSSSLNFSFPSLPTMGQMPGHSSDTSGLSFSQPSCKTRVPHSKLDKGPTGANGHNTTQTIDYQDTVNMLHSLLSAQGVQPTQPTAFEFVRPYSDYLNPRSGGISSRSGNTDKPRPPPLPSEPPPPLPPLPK
CDK9/cyclin T1, sequence (P50750 whole entry): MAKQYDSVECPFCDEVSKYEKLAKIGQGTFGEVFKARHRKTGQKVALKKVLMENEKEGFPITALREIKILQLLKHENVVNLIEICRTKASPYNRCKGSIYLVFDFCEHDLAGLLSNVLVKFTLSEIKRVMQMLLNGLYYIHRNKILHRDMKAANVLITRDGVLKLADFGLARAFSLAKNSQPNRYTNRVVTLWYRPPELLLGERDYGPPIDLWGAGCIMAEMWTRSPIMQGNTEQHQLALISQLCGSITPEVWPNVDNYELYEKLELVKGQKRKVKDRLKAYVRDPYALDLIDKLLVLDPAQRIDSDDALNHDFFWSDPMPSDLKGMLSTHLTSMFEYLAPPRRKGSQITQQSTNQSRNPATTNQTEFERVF
Cytochrome P450 2C9, sequence (P11712 whole entry): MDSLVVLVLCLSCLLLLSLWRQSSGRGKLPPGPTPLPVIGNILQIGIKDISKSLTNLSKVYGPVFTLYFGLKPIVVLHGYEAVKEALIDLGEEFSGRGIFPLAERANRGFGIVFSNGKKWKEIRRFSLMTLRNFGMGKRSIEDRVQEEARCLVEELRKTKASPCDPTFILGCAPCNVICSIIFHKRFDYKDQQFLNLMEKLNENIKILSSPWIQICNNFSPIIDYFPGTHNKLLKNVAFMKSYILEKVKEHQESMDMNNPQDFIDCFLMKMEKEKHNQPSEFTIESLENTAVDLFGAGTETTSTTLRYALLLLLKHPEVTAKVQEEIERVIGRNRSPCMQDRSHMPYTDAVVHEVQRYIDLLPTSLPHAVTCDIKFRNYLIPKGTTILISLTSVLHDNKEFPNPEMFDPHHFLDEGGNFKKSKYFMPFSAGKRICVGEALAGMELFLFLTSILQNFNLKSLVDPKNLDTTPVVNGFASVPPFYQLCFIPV
Description for CDK9/cyclin T1: Inhibition of CDK9/cyclin T1 (unknown origin)

As for `CC(=O)c1c(C)c2cnc(Nc3ccc(N4CCNCC4)cc3)nc2n2cc(C(C)C)nc12`, the inhibition at […], 10 µM at CYP2C19 was 21%; on CYP1A2, 17%. Besides, the 50% inhibitory concentration (IC50) in the series with COLO 205 [1] stood at 56.4 nM; at CDK9/cyclin T1, 23.4 nM; in series [3], 309 nM. Also, the TDI result on Cytochrome P450 1A2 and at Cytochrome P450 2C9 was “Not Active” each time. In [2], the Activity is under 20%. Also, in series [4], the AUCt was 472 ng·h/mL. Besides, the T/C in the series with COLO 205 [5] is 33%. Also, the microsomal CLint at 1 µM in series [6] turned out to be 54 µL/min/mg. Also, the inhibition in vivo at 30 mg/kg in the series on COLO 205 [7] was 85%.
